# Assay results published in patent US6589990B1, “Methods and compositions for misoprostol compound treatment of erectile dysfunction” (priority 1997, dated 2003).
# Like-named read-outs stand apart in the source and are kept apart here.
# What was measured:
# [1] = tested on: vessels of the glans penis; experiment: Vasodilatory action, into the corpus cavernosum versus topical; assay type: in vivo; settings: external application; compared with misoprostol
# Description: This is due to the differences in the mechanism of action on erectile function between misoprostol and other vasodilators (e.g. alprostadil): misoprostol applied topically can penetrate into the corpora cavernosa and can act on the smooth muscle fibers of the vessels, compared to other vasodilators. Further, its major site of action is on the vessels of the glans penis, and to a lesser extent, the prepuce.
# [2] = tested on: human male subjects having ED; experiment: Clinical trials in human male subjects having ED; assay type: in vivo
# Description: Subjects were 52 men aged 22-67 years, with ED of various causes. […] In all trials with these subjects, the following methods were applied successively for from a few days to 4 weeks: intracavernosal injection of 1.0 ml papaverine solution, 40 μγ/ml; […]; […]; topical application to the glans penis 0.08 to 0.1 ml, misoprostol gel 1000 μg/ml; intraurethral application of 0.08 to 0.1 ml misoprostol gel 1000 μg/ml; and topical application to the glans penis 0.1 ml. Gel of placebo.
# In the tests using either the gel or cream containing about […] of misoprostol per 0.1 ml, the formulation was applied by the patients themselves using their finger and a few retroactive movements of the prepuce on the glans of penis until the ointment was completely absorbed. The intraurethral gel was instilled by the patients with help of a thin syringe and a lubricating medium (propylene glycol or glycerin) to facilitate insertion of the syringe.
# In some patients with venous leak problems, a bandage tourniquet with a rubber band (or condom) on the base of the penis was applied 15-20 minutes after application of misoprostol. This method was particularly effective. […] In various subjects with ED due to one of several different causes, “pelvic exercises” were recommended (Kegel exercises) while the erection was developing. […] All tests were performed in the clinic without visual or any other type of stimulation.
# Solubility in water = assay type: physicochemical
# [3] = human, in vivo
# [4] = cited from earlier work
# [5] = Single high dosage, systemic undesirable effects (Example 9); settings: in the presence of α-cyclodextrin
# [6] = at 35° C.; cited from earlier work
# [7] = total (N = 52), externally applied gel, 80-100 μg
# [8] = total (N = 52), intraurethral applied gel, 80-100 μg
# [9] = total (N = 52), intracavernosal injection, 0.5 ml of 1.0 mg/ml
# [10] = total (N = 52), intraurethral ointment or γ-cyclodextrin complex in K-Y jelly, 1000 μg PGE1 in 0.1 ml
# [11] = total (N = 52), intracavernosal injection, 1 ml of 4%
structure (smiles),measurement,setting,value
CCCCC(C)(O)C/C=C/[C@H]1[C@H](O)CC(=O)[C@@H]1CCCCCCC(=O)O (mixture of isomers) [misoprostol acid],topical vasodilation,[1],equivalent strong topical vasodilation
"CCCCC(C)(O)C/C=C/[C@H]1[C@H](O)CC(=O)[C@@H]1CCCCCCC(=O)OC (mixture of isomers) [misoprostol, (11a 13E)-(±)-11,16-dihydroxy-16-methyl-9-oxoprost-13-en-1-oic acid methyl ester]",allergic or other topical reaction,[2]; application to glans penis or urethra,No allergic or any other topical reaction was reported except for redness of the glans
same,subjects having a positive pharmacological outcome,"[2]; hormonal ED (N = 1), externally applied gel, 80-100 μg",1
same,subjects having a positive pharmacological outcome,"[2]; hormonal ED (N = 1), intraurethral applied gel, 80-100 μg",1
same,subjects having a positive pharmacological outcome,"[2]; neurogenic ED (N = 5), externally applied gel, 80-100 μg",4
same,subjects having a positive pharmacological outcome,"[2]; neurogenic ED (N = 5), intraurethral applied gel, 80-100 μg",5
same,subjects having a positive pharmacological outcome,"[2]; psychogenic ED (N = 15), externally applied gel, 80-100 μg",13
same,subjects having a positive pharmacological outcome,"[2]; psychogenic ED (N = 15), intraurethral applied gel, 80-100 μg",14
same,percent of subjects having a positive pharmacological outcome,[2]; [7],62%
same,subjects having a positive pharmacological outcome,[2]; [7],32
same,percent of subjects having a positive pharmacological outcome,[2]; [8],73%
same,subjects having a positive pharmacological outcome,[2]; [8],38
same,subjects having a positive pharmacological outcome,"[2]; undetermined etiology (N = 7), externally applied gel, 80-100 μg",4
same,subjects having a positive pharmacological outcome,"[2]; undetermined etiology (N = 7), intraurethral applied gel, 80-100 μg",5
same,subjects having a positive pharmacological outcome,"[2]; vascular ED (N = 24), externally applied gel, 80-100 μg",10
same,subjects having a positive pharmacological outcome,"[2]; vascular ED (N = 24), intraurethral applied gel, 80-100 μg",13
same,solubility in water (in words),Solubility in water,water soluble
same,"single high dose that can cause systemic undesirable effects (fatigue, erythema and diarrhea)",[3],> 1000 micrograms
same,"single high dose that can cause systemic undesirable effects (fatigue, erythema and diarrhea)",[3]; male,> 1800 micrograms
same,undesirable effect of oral therapy,[4],male impotence
same,"single higher dose allowed, undesirable effects reduced or eliminated",[5],> 2000 micrograms
CCCCC[C@H](O)/C=C/[C@H]1[C@H](O)CC(=O)[C@@H]1CCCCCCC(=O)O [alprostadil],subjects having a positive pharmacological outcome,"[2]; hormonal ED (N = 1), intracavernosal injection, 0.5 ml of 1.0 mg/ml",1
same,subjects having a positive pharmacological outcome,"[2]; hormonal ED (N = 1), intraurethral ointment or γ-cyclodextrin complex in K-Y jelly, 1000 μg PGE1 in 0.1 ml",0
same,subjects having a positive pharmacological outcome,"[2]; neurogenic ED (N = 5), intracavernosal injection, 0.5 ml of 1.0 mg/ml",4
same,subjects having a positive pharmacological outcome,"[2]; neurogenic ED (N = 5), intraurethral ointment or γ-cyclodextrin complex in K-Y jelly, 1000 μg PGE1 in 0.1 ml",1
same,subjects having a positive pharmacological outcome,"[2]; psychogenic ED (N = 15), intracavernosal injection, 0.5 ml of 1.0 mg/ml",11
same,subjects having a positive pharmacological outcome,"[2]; psychogenic ED (N = 15), intraurethral ointment or γ-cyclodextrin complex in K-Y jelly, 1000 μg PGE1 in 0.1 ml",9
same,percent of subjects having a positive pharmacological outcome,[2]; [9],60%
same,subjects having a positive pharmacological outcome,[2]; [9],31
same,percent of subjects having a positive pharmacological outcome,[2]; [10],31%
same,subjects having a positive pharmacological outcome,[2]; [10],16
same,subjects having a positive pharmacological outcome,"[2]; undetermined etiology (N = 7), intracavernosal injection, 0.5 ml of 1.0 mg/ml",5
same,subjects having a positive pharmacological outcome,"[2]; undetermined etiology (N = 7), intraurethral ointment or γ-cyclodextrin complex in K-Y jelly, 1000 μg PGE1 in 0.1 ml",1
same,subjects having a positive pharmacological outcome,"[2]; vascular ED (N = 24), intracavernosal injection, 0.5 ml of 1.0 mg/ml",10
same,subjects having a positive pharmacological outcome,"[2]; vascular ED (N = 24), intraurethral ointment or γ-cyclodextrin complex in K-Y jelly, 1000 μg PGE1 in 0.1 ml",5
same,solubility in water,[6],8000 micrograms/100 ml
COc1ccc(Cc2nccc3cc(OC)c(OC)cc23)cc1OC [papaverine],subjects having a positive pharmacological outcome,"[2]; hormonal ED (N = 1), intracavernosal injection, 1 ml of 4%",0
same,subjects having a positive pharmacological outcome,"[2]; neurogenic ED (N = 5), intracavernosal injection, 1 ml of 4%",2
same,subjects having a positive pharmacological outcome,"[2]; psychogenic ED (N = 15), intracavernosal injection, 1 ml of 4%",10
same,percent of subjects having a positive pharmacological outcome,[2]; [11],42%
same,subjects having a positive pharmacological outcome,[2]; [11],22
same,subjects having a positive pharmacological outcome,"[2]; undetermined etiology (N = 7), intracavernosal injection, 1 ml of 4%",3
same,subjects having a positive pharmacological outcome,"[2]; vascular ED (N = 24), intracavernosal injection, 1 ml of 4%",7
